In ChEMBL document CHEMBL1147240, “Lactones from the leaves of Litsea japonica and their anti-complement activity” (J Nat Prod, 2003):

Experiment: Inhibition of human serum complement system-mediated hemolysis

| Structure (SMILES) | IC50 |
| --- | --- |
| C=CCCCCCCCC/C=C/C1=C[C@H](C)OC1=O [HAMABIWALACTONE B] | 149 µM |
| CC/C=C/CCCCCCCC/C=C/C1=CC(C)OC1=O (single isomer, unassigned) [LITSEALACTONE A] | 787 µM |
| C#CCCCCCCCC/C=C/C1=C[C@H](C)OC1=O [HAMABIWALACTONE A] | 714 µM |
| O=C(/C=C/c1ccc(O)c(O)c1)O[C@H](Cc1ccc(O)c(O)c1)C(=O)O [ROSMARINIC ACID] | 180 µM |
| C=C/C=C/CCCCCCCC/C=C/C1=C[C@H](C)OC1=O [AKOLACTONE B] | 58 µM |
